# Measured values from ChEMBL document CHEMBL2021858, “The effect of vindoline C-16 substituents on the biomimetic coupling reaction: synthesis and cytotoxicity evaluation of the corresponding vinorelbine analogues” (Bioorg Med Chem Lett, 2012).
# What was measured:
# HeLa = assay: Cytotoxicity against human HeLa cells by MTT assay; format: functional, cell-based
# A549 = assay: Cytotoxicity against human A549 cells by MTT assay; format: functional, cell-based
SMILES,IC50 (HeLa),IC50 (A549)
CCC1=C[C@@H]2CN(C1)Cc1c([nH]c3ccccc13)[C@@](C(=O)OC)(c1cc3c(cc1OC)N(C)[C@H]1[C@@](O)(COC(C)=O)[C@H](OC(C)=O)[C@]4(CC)C=CCN5CC[C@]31[C@@H]54)C2,5 nM,7 nM
CCOc1cc2c(cc1[C@@]1(C(=O)OC)C[C@@H]3C=C(CC)CN(Cc4c1[nH]c1ccccc41)C3)[C@@]13CCN4CC=C[C@@](CC)([C@@H](OC(C)=O)[C@](O)(COC(C)=O)[C@@H]1N2C)[C@H]43,11 nM,13 nM
CCCOc1cc2c(cc1[C@@]1(C(=O)OC)C[C@@H]3C=C(CC)CN(Cc4c1[nH]c1ccccc41)C3)[C@@]13CCN4CC=C[C@@](CC)([C@@H](OC(C)=O)[C@](O)(COC(C)=O)[C@@H]1N2C)[C@H]43,45 nM,51 nM
CCCCOc1cc2c(cc1[C@@]1(C(=O)OC)C[C@@H]3C=C(CC)CN(Cc4c1[nH]c1ccccc41)C3)[C@@]13CCN4CC=C[C@@](CC)([C@@H](OC(C)=O)[C@](O)(COC(C)=O)[C@@H]1N2C)[C@H]43,89 nM,94 nM
CCCCCCCOc1cc2c(cc1[C@@]1(C(=O)OC)C[C@@H]3C=C(CC)CN(Cc4c1[nH]c1ccccc41)C3)[C@@]13CCN4CC=C[C@@](CC)([C@@H](OC(C)=O)[C@](O)(COC(C)=O)[C@@H]1N2C)[C@H]43,317 nM,331 nM
CCC1=C[C@@H]2CN(C1)Cc1c([nH]c3ccccc13)[C@@](C(=O)OC)(c1cc3c(cc1OC(C)C)N(C)[C@H]1[C@@](O)(COC(C)=O)[C@H](OC(C)=O)[C@]4(CC)C=CCN5CC[C@]31[C@@H]54)C2,209 nM,236 nM
CCC1=C[C@@H]2CN(C1)Cc1c([nH]c3ccccc13)[C@@](C(=O)OC)(c1cc3c(cc1OCCOC(C)=O)N(C)[C@H]1[C@@](O)(COC(C)=O)[C@H](OC(C)=O)[C@]4(CC)C=CCN5CC[C@]31[C@@H]54)C2,77 nM,83 nM
CCC1=C[C@@H]2CN(C1)Cc1c([nH]c3ccccc13)[C@@](C(=O)OC)(c1cc3c(cc1OC(C)=O)N(C)[C@H]1[C@@](O)(COC(C)=O)[C@H](OC(C)=O)[C@]4(CC)C=CCN5CC[C@]31[C@@H]54)C2,49 nM,56 nM
CCC1=C[C@@H]2CN(C1)Cc1c([nH]c3ccccc13)[C@@](C(=O)OC)(c1cc3c(cc1OC)N(C)[C@H]1[C@@](O)(C(=O)OC)[C@H](OC(C)=O)[C@]4(CC)C=CCN5CC[C@]31[C@@H]54)C2 [VINORELBINE],9 nM,10 nM
